Experiments:
Test in all cases: KINOMEscan competition binding
Conditions in all cases: compound 1.0 µM
[1] = system: PIK3CA (human), P42336 [I800L]
PDGFRB (human) = PDGFRB (human) (UniProt P09619)
[2] = system: EGFR (human), P00533 [T790M]
PTK2B (human) = PTK2B (human) (UniProt Q14289)
HCK (human) = HCK (human) (UniProt P08631)
TRPM6 (human) = TRPM6 (human) (UniProt Q9BX84)
TLK1 (human) = TLK1 (human) (UniProt Q9UKI8)
SLK (human) = SLK (human) (UniProt Q9H2G2)
CIT (human) = CIT (human) (UniProt O14578)
STK17B (human) = STK17B (human) (UniProt O94768)
Sequence of STK17B (human) (O94768 whole entry, looked up): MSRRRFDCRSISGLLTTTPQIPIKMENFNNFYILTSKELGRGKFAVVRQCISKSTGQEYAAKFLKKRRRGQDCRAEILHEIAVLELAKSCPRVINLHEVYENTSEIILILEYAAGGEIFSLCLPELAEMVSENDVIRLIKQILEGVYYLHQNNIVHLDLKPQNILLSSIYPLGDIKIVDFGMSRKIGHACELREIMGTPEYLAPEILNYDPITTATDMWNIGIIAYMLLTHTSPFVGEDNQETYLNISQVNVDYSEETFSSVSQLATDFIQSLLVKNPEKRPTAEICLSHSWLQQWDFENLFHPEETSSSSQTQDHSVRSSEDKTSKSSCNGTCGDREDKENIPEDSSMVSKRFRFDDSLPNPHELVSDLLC

MAP3K9 (human) = MAP3K9 (human) (UniProt P80192)
CDKL3 (human) = CDKL3 (human) (UniProt Q8IVW4)
PAK7 (human) = PAK7 (human) (UniProt Q9P286)
Sequence of PAK7 (human) (Q9P286 whole entry, looked up): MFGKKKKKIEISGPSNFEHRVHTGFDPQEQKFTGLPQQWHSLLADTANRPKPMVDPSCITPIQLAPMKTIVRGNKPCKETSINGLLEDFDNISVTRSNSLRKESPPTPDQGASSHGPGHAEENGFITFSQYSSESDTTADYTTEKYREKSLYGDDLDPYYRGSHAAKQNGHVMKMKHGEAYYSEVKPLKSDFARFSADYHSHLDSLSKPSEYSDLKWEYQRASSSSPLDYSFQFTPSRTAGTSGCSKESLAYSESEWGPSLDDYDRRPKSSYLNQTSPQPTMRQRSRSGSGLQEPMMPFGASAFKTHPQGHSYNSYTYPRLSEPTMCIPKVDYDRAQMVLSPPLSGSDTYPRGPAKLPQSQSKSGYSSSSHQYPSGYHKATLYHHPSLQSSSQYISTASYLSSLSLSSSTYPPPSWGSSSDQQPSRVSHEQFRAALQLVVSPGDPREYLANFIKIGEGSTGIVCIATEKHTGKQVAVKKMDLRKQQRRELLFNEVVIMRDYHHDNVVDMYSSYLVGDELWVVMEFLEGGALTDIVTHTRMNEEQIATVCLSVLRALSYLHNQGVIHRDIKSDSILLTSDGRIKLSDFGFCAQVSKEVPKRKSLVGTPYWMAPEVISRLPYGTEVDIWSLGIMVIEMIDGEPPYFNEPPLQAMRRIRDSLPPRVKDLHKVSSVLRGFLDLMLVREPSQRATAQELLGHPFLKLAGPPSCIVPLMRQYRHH

CPK1 (P.falciparum) = system: CPK1 (P.falciparum)
CRK2 (P.falciparum) = CRK2 (P.falciparum) (UniProt P61075)
Sequence of CRK2 (P.falciparum) (P61075 whole entry, looked up): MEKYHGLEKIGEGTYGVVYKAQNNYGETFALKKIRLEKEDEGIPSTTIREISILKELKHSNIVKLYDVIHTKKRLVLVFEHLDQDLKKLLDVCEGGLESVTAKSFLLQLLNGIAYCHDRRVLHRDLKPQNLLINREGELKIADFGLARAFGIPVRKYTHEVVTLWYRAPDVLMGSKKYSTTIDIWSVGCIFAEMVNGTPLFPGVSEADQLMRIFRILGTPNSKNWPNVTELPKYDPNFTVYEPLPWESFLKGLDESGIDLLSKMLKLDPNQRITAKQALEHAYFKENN

LATS1 (human) = LATS1 (human) (UniProt O95835)
DCLK3 (human) = DCLK3 (human) (UniProt Q9C098)
MAP4K5 (human) = MAP4K5 (human) (UniProt Q9Y4K4)
Sequence of MAP4K5 (human) (Q9Y4K4 whole entry, looked up): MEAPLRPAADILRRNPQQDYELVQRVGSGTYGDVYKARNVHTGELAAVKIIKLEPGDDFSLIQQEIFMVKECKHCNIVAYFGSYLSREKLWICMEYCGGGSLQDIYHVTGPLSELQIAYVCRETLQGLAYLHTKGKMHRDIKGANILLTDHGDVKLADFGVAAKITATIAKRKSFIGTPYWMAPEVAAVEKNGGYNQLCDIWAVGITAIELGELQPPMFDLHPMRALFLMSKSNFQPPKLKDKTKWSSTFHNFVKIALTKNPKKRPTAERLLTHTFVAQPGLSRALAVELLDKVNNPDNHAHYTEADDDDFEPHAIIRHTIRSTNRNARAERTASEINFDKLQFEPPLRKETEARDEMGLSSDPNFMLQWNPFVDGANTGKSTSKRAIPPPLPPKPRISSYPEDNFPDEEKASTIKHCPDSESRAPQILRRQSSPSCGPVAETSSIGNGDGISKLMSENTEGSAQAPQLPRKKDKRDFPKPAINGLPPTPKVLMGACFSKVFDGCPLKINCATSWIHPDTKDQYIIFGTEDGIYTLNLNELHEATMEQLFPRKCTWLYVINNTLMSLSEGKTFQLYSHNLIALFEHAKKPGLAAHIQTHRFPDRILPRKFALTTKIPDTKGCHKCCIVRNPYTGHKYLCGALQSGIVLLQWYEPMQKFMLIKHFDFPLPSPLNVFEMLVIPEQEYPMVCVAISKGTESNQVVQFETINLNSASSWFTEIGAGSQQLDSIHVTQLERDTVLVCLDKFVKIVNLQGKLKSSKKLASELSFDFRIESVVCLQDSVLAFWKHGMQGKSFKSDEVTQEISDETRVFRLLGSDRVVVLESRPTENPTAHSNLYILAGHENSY

PIP4K2B (human) = PIP4K2B (human) (UniProt P78356)
PIK3CA (human) = PIK3CA (human) (UniProt P42336)
Sequence of PIK3CA (human) (P42336 whole entry, looked up): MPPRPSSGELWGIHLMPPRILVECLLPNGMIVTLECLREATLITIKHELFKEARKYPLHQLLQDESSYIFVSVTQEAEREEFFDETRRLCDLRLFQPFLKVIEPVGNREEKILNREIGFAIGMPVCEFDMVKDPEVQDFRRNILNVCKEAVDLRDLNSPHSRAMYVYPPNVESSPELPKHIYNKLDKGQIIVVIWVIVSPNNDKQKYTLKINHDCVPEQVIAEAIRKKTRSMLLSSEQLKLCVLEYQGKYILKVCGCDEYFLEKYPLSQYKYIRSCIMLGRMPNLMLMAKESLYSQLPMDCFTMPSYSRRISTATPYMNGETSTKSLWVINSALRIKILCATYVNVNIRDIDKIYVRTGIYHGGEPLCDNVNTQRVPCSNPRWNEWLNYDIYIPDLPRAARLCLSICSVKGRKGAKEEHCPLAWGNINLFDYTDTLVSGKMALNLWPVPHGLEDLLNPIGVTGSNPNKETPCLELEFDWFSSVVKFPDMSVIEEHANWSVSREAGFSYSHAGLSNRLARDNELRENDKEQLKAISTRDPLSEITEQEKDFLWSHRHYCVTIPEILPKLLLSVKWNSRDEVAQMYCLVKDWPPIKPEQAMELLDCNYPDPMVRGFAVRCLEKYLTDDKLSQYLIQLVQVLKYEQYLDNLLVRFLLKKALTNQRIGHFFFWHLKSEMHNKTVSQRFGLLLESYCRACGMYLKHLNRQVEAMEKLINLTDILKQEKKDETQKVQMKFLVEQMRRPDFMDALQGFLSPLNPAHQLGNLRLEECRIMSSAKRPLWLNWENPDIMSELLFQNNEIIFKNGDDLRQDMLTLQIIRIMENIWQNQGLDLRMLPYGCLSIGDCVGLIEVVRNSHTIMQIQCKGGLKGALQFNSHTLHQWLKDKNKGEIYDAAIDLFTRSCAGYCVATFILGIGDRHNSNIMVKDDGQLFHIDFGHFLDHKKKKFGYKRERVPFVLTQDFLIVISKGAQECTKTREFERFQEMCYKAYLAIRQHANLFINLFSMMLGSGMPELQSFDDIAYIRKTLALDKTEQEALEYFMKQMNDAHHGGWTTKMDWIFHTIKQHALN

PKN3 (M.tuberculosis) = PKN3 (M.tuberculosis) (UniProt Q6P5Z2)
PKN2 (human) = PKN2 (human) (UniProt Q16513)
IKBKB (human) = IKBKB (human) (UniProt O14920)
[3] = target: TYK2 JH1 catalytic (human) (UniProt P29597)
RPS6KA5 KD2 (human) = RPS6KA5 KD2 (human) (UniProt O75582)
MAP2K7 (human) = MAP2K7 (human) (UniProt O14733)
PIK3C2B (human) = PIK3C2B (human) (UniProt O00750)
PRKACA (human) = PRKACA (human) (UniProt P17612)
AKT2 (human) = AKT2 (human) (UniProt P31751)
PIK3CB (human) = PIK3CB (human) (UniProt P42338)
MKNK1 (human) = MKNK1 (human) (UniProt Q9BUB5)
ANKK1 (human) = ANKK1 (human) (UniProt Q8NFD2)
CLK4 (human) = CLK4 (human) (UniProt Q9HAZ1)
[4] = system: ABL1 (human), P00519 [Y253F]
RPS6KA2 KD1 (human) = RPS6KA2 KD1 (human) (UniProt Q15349)
STK3 (human) = STK3 (human) (UniProt Q13188)
CDK5 (human) = CDK5 (human) (UniProt Q00535)
MAST1 (human) = MAST1 (human) (UniProt Q9Y2H9)
ADCK4 (human) = ADCK4 (human) (UniProt Q96D53)
STK38L (human) = STK38L (human) (UniProt Q9Y2H1)
Sequence of STK38L (human) (Q9Y2H1 whole entry, looked up): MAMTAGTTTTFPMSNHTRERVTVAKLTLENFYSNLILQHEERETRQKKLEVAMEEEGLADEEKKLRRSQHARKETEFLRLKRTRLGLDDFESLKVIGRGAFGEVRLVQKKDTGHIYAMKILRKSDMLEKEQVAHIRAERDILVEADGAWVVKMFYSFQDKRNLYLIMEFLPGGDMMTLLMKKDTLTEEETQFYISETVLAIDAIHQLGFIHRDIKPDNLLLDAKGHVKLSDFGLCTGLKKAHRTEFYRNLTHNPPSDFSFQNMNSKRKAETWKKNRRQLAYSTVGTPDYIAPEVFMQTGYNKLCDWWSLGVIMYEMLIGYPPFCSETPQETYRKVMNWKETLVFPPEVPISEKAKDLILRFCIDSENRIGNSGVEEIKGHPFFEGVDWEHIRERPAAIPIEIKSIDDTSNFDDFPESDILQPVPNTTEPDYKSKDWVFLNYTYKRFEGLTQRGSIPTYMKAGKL

[5] = system: ABL1 (human), P00519 [M351T]
MAPK10 (human) = MAPK10 (human) (UniProt P53779)
MATK (human) = MATK (human) (UniProt P42679)

Sequence of SLK (human) (Q9H2G2 whole entry, looked up): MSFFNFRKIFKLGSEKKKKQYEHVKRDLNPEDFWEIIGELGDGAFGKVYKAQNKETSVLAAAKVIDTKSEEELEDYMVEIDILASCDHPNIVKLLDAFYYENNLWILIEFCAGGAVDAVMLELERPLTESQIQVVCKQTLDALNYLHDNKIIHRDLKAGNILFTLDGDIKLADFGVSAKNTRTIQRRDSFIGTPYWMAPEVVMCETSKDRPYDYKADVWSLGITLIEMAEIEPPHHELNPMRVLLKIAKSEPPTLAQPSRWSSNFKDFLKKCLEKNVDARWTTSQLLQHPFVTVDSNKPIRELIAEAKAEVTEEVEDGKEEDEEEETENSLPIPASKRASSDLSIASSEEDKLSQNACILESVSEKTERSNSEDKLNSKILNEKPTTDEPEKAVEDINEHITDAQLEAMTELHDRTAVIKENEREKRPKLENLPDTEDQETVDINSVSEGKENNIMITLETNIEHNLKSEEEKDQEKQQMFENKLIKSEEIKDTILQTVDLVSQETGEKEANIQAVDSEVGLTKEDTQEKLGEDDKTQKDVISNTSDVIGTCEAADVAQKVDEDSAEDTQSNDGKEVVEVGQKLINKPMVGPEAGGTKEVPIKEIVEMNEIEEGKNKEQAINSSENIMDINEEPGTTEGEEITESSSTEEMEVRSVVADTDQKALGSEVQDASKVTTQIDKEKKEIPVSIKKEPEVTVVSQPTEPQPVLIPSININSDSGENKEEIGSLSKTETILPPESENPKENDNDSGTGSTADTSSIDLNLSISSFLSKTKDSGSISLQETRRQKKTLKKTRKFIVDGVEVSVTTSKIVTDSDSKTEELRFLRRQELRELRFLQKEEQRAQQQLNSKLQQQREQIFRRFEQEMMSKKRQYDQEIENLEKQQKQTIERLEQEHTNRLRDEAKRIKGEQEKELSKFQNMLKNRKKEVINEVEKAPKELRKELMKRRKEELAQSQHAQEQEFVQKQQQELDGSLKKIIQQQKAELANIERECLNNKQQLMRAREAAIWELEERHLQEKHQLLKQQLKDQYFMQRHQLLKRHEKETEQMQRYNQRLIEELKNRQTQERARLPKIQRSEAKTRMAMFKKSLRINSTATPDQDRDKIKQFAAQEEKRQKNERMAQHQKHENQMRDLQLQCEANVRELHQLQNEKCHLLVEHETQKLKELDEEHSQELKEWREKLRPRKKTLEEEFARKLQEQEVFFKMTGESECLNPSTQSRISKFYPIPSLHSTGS
Sequence of PIK3CA (human), P42336 [I800L] (P42336 whole entry I800L, looked up): as the sequence (P42336 whole entry, looked up) above, with I800L counted along it

## COCCNCCCn1c(C(=O)CF)c(-c2ccc(C)cc2)c2c(N)ncnc21
[1]
  kinase still bound, per cent of control: 100%
PDGFRB (human)
  kinase still bound, per cent of control: 68%
[2]
  kinase still bound, per cent of control: 100%
PTK2B (human)
  kinase still bound, per cent of control: 100%
HCK (human)
  kinase still bound, per cent of control: 100%
TRPM6 (human)
  kinase still bound, per cent of control: 81%
TLK1 (human)
  kinase still bound, per cent of control: 78%
SLK (human)
  kinase still bound, per cent of control: 100%
CIT (human)
  kinase still bound, per cent of control: 93%
STK17B (human)
  kinase still bound, per cent of control: 96%
MAP3K9 (human)
  kinase still bound, per cent of control: 100%
CDKL3 (human)
  kinase still bound, per cent of control: 88%
PAK7 (human)
  kinase still bound, per cent of control: 82%
CPK1 (P.falciparum)
  kinase still bound, per cent of control: 89%
CRK2 (P.falciparum)
  kinase still bound, per cent of control: 100%
LATS1 (human)
  kinase still bound, per cent of control: 100%
DCLK3 (human)
  kinase still bound, per cent of control: 100%
MAP4K5 (human)
  kinase still bound, per cent of control: 86%
PIP4K2B (human)
  kinase still bound, per cent of control: 94%
PIK3CA (human)
  kinase still bound, per cent of control: 100%
PKN3 (M.tuberculosis)
  kinase still bound, per cent of control: 100%
PKN2 (human)
  kinase still bound, per cent of control: 94%
IKBKB (human)
  kinase still bound, per cent of control: 95%
[3]
  kinase still bound, per cent of control: 100%
RPS6KA5 KD2 (human)
  kinase still bound, per cent of control: 98%
MAP2K7 (human)
  kinase still bound, per cent of control: 78%
PIK3C2B (human)
  kinase still bound, per cent of control: 100%
PRKACA (human)
  kinase still bound, per cent of control: 100%
AKT2 (human)
  kinase still bound, per cent of control: 95%
PIK3CB (human)
  kinase still bound, per cent of control: 89%
MKNK1 (human)
  kinase still bound, per cent of control: 100%
ANKK1 (human)
  kinase still bound, per cent of control: 100%
CLK4 (human)
  kinase still bound, per cent of control: 91%
[4]
  kinase still bound, per cent of control: 94%
RPS6KA2 KD1 (human)
  kinase still bound, per cent of control: 83%
STK3 (human)
  kinase still bound, per cent of control: 95%
CDK5 (human)
  kinase still bound, per cent of control: 95%
MAST1 (human)
  kinase still bound, per cent of control: 83%
ADCK4 (human)
  kinase still bound, per cent of control: 93%
STK38L (human)
  kinase still bound, per cent of control: 92%
[5]
  kinase still bound, per cent of control: 96%
MAPK10 (human)
  kinase still bound, per cent of control: 100%
MATK (human)
  kinase still bound, per cent of control: 100%

From the kinase profiling compilation of Christmann-Franck et al. (2016)
